# Where two headings read alike, the source gives them in different places.
# What was measured:
# [1] = Solubility in solvents and mixture solvents; format: physicochemical
# Description: As there may be potential Form A/H (Anhydrate) or Form I (THF solvate) in water or THF system according to the polymorph screening report, the use of water and THF were avoided in following study. […]
# [2] = Interconversion of polymorphs (heating, dehydration, humidity, equilibration); format: physicochemical
# Description: In total, 15 forms were identified to be polymorphs or pseudo-polymorphs of the free form, including seven anhydrates, Forms A, C, H, J, K. L and O; four hydrates, Forms B, F, M and N; and three solvates, Forms D, E and I. In addition, a metastable form, Form G, and an amorphous form were also obtained.
# The interconversion relation of polymorphs identified is outlined in FIG. 5.
smiles,measurement,setting,value
"Cc1nc(-c2c[nH]c3c(C#N)cccc23)cnc1OCC(C)(C)O [Form C, 3-(5-(2-hydroxy-2-methylpropoxy)-6-methylpyrazin-2-yl)-1H-indole-7-carbonitrile]",XRPD,"[1]; 2-ME-THF/n-hep mixtures, 50 ° C. (printed at 4/0.5, probably merged for all rows)",Form C
same,Solubility,"[1]; 2-MeTHF, 25° C.",117 mg/mL solvent
same,Solubility,"[1]; 2-MeTHF, 50° C.",154 mg/mL solvent
same,Solubility,"[1]; 2-MeTHF/n-heptane 1/1 (v/v), organic solvent or mixture, thermodynamic from solid, 2-ME-THF/n-hep = 1/1 (v/v), 25 ° C., read-out: Solubility",13000 µg/mL
same,Solubility,"[1]; 2-MeTHF/n-heptane 1/2 (v/v), organic solvent or mixture, thermodynamic from solid, 2-ME-THF/n-hep = 1/2 (v/v), 25 ° C., read-out: Solubility",~4000 µg/mL
same,Solubility,"[1]; 2-MeTHF/n-heptane 1/3 (v/v), organic solvent or mixture, thermodynamic from solid, 2-ME-THF/n-hep = 1/3 (v/v), 25 ° C., read-out: Solubility",~2000 µg/mL
same,Solubility,"[1]; 2-MeTHF/n-heptane 4/0.5 (v/v), organic solvent or mixture, thermodynamic from solid, 2-ME-THF/n-hep = 4/0.5 (v/v), 50 ° C., read-out: Solubility",122000 µg/mL
same,Solubility,"[1]; 2-MeTHF/n-heptane 4/1 (v/v), organic solvent or mixture, thermodynamic from solid, 2-ME-THF/n-hep = 4/1 (v/v), 50 ° C., read-out: Solubility",90000 µg/mL
same,Solubility,"[1]; 2-MeTHF/n-heptane 4/2 (v/v), organic solvent or mixture, thermodynamic from solid, 2-ME-THF/n-hep = 4/2 (v/v), 50 ° C., read-out: Solubility",49000 µg/mL
same,Solubility,"[1]; 2-MeTHF/n-heptane 4/4 (v/v), organic solvent or mixture, thermodynamic from solid, 2-ME-THF/n-hep = 4/4 (v/v), 50 ° C., read-out: Solubility",21000 µg/mL
same,Solubility,"[1]; 2-MeTHF/n-heptane 4/8 (v/v), organic solvent or mixture, thermodynamic from solid, 2-ME-THF/n-hep = 4/8 (v/v), 50 ° C., read-out: Solubility",10000 µg/mL
same,Solubility,"[1]; 2-MeTHF/n-heptane 4/12 (v/v), organic solvent or mixture, thermodynamic from solid, 2-ME-THF/n-hep = 4/12 (v/v), 50 ° C., read-out: Solubility",5000 µg/mL
same,Solubility,"[1]; Acetone, 25° C.",66 mg/mL solvent
same,Solubility,"[1]; Acetone, 50° C.",122 mg/mL solvent
same,Solubility,"[1]; EA, 25° C.",32 mg/mL solvent
same,Solubility,"[1]; EA, 50° C.",58 mg/mL solvent
same,XRPD,"[1]; EA, 50° C. (cell printed at this row, probably merged downwards)",Form C
same,Solubility,"[1]; Ethanol, 25° C.",27 mg/mL solvent
same,Solubility,"[1]; Ethanol, 50° C.",64 mg/mL solvent
same,Solubility,"[1]; Heptane, 25° C.",~2 mg/mL solvent
same,Solubility,"[1]; Heptane, 50° C.",~3 mg/mL solvent
same,Solubility,"[1]; IPA, 25° C.",14 mg/mL solvent
same,Solubility,"[1]; IPA, 50° C.",29 mg/mL solvent
same,Solubility,"[1]; MCH, 25° C.",~3 mg/mL solvent
same,Solubility,"[1]; MCH, 50° C.",~3 mg/mL solvent
same,Solubility,"[1]; MEK, 25° C.",63 mg/mL solvent
same,Solubility,"[1]; MEK, 50° C.",110 mg/mL solvent
same,Solubility,"[1]; MEK/n-heptane 1/1 (v/v), organic solvent or mixture, thermodynamic from solid, MEK/n-hep = 1/1 (v/v), 25 ° C., read-out: Solubility",16000 µg/mL
same,Solubility,"[1]; MEK/n-heptane 1/2 (v/v), organic solvent or mixture, thermodynamic from solid, MEK/n-hep = 1/2 (v/v), 25 ° C., read-out: Solubility",6000 µg/mL
same,Solubility,"[1]; MEK/n-heptane 1/3 (v/v), organic solvent or mixture, thermodynamic from solid, MEK/n-hep = 1/3 (v/v), 25 ° C., read-out: Solubility",~3000 µg/mL
same,Solubility,"[1]; MIBK, 25° C.",21 mg/mL solvent
same,Solubility,"[1]; MIBK, 50° C.",28 mg/mL solvent
same,Solubility,"[1]; THF, 25° C.",247 mg/mL solvent
same,Solubility,"[1]; THF, 50° C.",>200 mg/mL solvent
same,Solubility,"[1]; Toluene, 25° C.",5 mg/mL solvent
same,Solubility,"[1]; Toluene, 50° C.",5 mg/mL solvent
same,XRPD,"[1]; Water, 25° C. (cell printed at this row, probably merged downwards)",Form C
same,Solubility,"[1]; Water, 25° C., read-out: Solubility",~1000 µg/mL
same,Solubility,"[1]; Water, 50° C.",~0 mg/mL solvent
same,XRPD,"[1]; Water, 50° C. (cell printed at this row, probably merged downwards)",Form C
same,Solubility,"[1]; acetone/n-heptane 1/1 (v/v), organic solvent or mixture, thermodynamic from solid, Acetone/n-hep = 1/1 (v/v), 25 ° C., read-out: Solubility",18000 µg/mL
same,Solubility,"[1]; acetone/n-heptane 1/2 (v/v), organic solvent or mixture, thermodynamic from solid, Acetone/n-hep = 1/2 (v/v), 25 ° C., read-out: Solubility",10000 µg/mL
same,Solubility,"[1]; acetone/n-heptane 1/3 (v/v), organic solvent or mixture, thermodynamic from solid, Acetone/n-hep = 1/3 (v/v), 25 ° C., read-out: Solubility",5000 µg/mL
same,Solubility in words,"[1]; in acetone, THF, 2-MeTHF, and MEK",high solubility
same,Solubility in words,"[1]; in water, n-heptane, and MCH",poor solubility
same,XRPD,"[1]; mixture solvents, 25 ° C. (printed at Acetone/MCH = 1/1, probably merged for all rows)",Form C
same,Solubility,"[1]; n-PrOH, 25° C.",21 mg/mL solvent
same,Solubility,"[1]; n-PrOH, 50° C.",48 mg/mL solvent
same,Solubility,"[1]; organic solvent or mixture, thermodynamic from solid, 2-MeTHF/MCH = 1/1 (v/v), 25 ° C., read-out: Solubility",18000 µg/mL
same,Solubility,"[1]; organic solvent or mixture, thermodynamic from solid, 2-MeTHF/MCH = 1/2 (v/v), 25 ° C., read-out: Solubility",6000 µg/mL
same,Solubility,"[1]; organic solvent or mixture, thermodynamic from solid, 2-MeTHF/MCH = 1/3 (v/v), 25 ° C., read-out: Solubility",~4000 µg/mL
same,Solubility,"[1]; organic solvent or mixture, thermodynamic from solid, Acetone/MCH = 1/1 (v/v), 25 ° C., read-out: Solubility",30000 µg/mL
same,Solubility,"[1]; organic solvent or mixture, thermodynamic from solid, Acetone/MCH = 1/2 (v/v), 25 ° C., read-out: Solubility",15000 µg/mL
same,Solubility,"[1]; organic solvent or mixture, thermodynamic from solid, MEK/MCH = 1/1 (v/v), 25 ° C., read-out: Solubility",20000 µg/mL
same,Solubility,"[1]; organic solvent or mixture, thermodynamic from solid, MEK/MCH = 1/2 (v/v), 25 ° C., read-out: Solubility",9000 µg/mL
same,Stability compared to the other polymorph forms,[2],most stable polymorph

# — patent US12168650B2, “Crystalline forms of 3-(5-(2-hydroxy-2-methylpropoxy)-6-methylpyrazin-2-yl)-1H-indole-7-carbonitrile” (NIDO BIOSCIENCES, INC., priority 2022, dated 2024)
